Columns and labels:
[1] = in vitro; conditions: human, heparinized human plasma
Procedure: (§1) The incubations were done at 37° C., and the withdrawn samples of the plasmatic mixture, of 100 μl each, were blocked at the various times by adding trifluoroacetic acid to the extent of 10%, followed by centrifuging at 10,000g for 5 minutes. An aliquot of the supernatant was chromatographed under conditions suitable for showing the change in the peptide concentration at the various times.

[2] = Stability towards enzymatic hydrolysis in heparinized human plasma; conditions: 37° C., about 30 nmoles/ml of plasma
Procedure: as §1

[3] = system: lymphocytes which secrete antibodies (PFC); assay: Hemolysis plaque (PFC) test of Jerne and Nordin in SRBC-immunized mice; format: in vivo, C3H/HeNCr1Br inbred male mice; conditions: 1 ng of peptide orally 2 hours after SRBC i.v., spleen lymphocytes after 4 days, IgM PFC
Procedure: Specifically, hemolysis plates (PFC) were used for the test, which was conducted by the method described by Jerne and Nordin. The test was carried out by intravenously administering to C3H/HeNCr1Br inbred male mice (Calco-Italia) of 10-12 weeks and about 25 g body weight an apyrogenic saline solution (0.2 ml) containing 1-2×10^8 red blood cells from sheep (SRBC). After two hours, groups each containing 3 mice were treated orally (intragastric tube) with 0.2 ml of saline solution (control) or with 0.2 ml of saline solution containing 1 ng of peptide. After 4 days the mice were killed and the spleen withdrawn and dissociated mechanically to separate the lymphocytes. The thus isolated lymphocytes were washed with minimum essential medium (MEM) (3×15 ml) containing Earle's salts and then resuspended in the same medium (1 ml) at a final concentration of 150,000 cells. Each cell suspension (0.1 ml) was then diluted 1:100 with MEM, 100 μl of each dilution being doubly added to microplate wells containing 25 μl of MEM, 25 μl of a 10% solution of SRBC antigens and 25 μl of guinea pig complement at a final dilution of 1:64. The entire suspension was immediately transferred by capillarity from each well to superimposed slides. […]
At the end of this period the direct hemolysis plaques indicating the number of lymphocytes which secrete antibodies (PFC) are counted by a light contrast viewer.

[4] = action of various proteases; cited from earlier work

| Compound | half-life [1] [min] | Stability towards enzymatic hydrolysis in human plasma (t/2 in minutes) [2] | Plaque formation % control [3] [% control] | t1/2 in the plasma [4] [min] |
| --- | --- | --- | --- | --- |
| CC(C)C(C(=O)N[C@H](CC(=O)O)NC(=O)C(CCCCN)C(=O)N[C@@H](N)CCCNC(=N)N)C(=O)N[C@@H](Cc1ccc(O)cc1)C(=O)O (some centres unmarked) [Example 1] | > 300 | > 300 min | – | – |
| CC(C)[C@H](NC(=O)[C@H](CC(=O)O)NC(=O)C(CCCCN)C(=O)N[C@@H](N)CCCNC(=N)N)C(=O)N[C@@H](Cc1ccc(O)cc1)C(=O)O (some centres unmarked) | 22 | 22 min | 112 | – |
| H-RKDVY-OH [TP5, H-Arg-Lys-Asp-Val-Tyr-OH] | – | ≈ 1.5 minutes | 104 | 1.5 |
